How the values were obtained:
[1] = Binding affinity towards 5-HT2 receptor using porcine cortical membrane and [3H]ketanserin as radioligand; set-up: species or system Sus scrofa
D(2) dopamine receptor [2] = molecular target: T1, D(2) dopamine receptor (Homo sapiens, UniProt P14416); test: biochemical
Description: Binding affinity towards Dopamine D2S receptor using CHO cell line and [3H]spiperone as radioligand

D(3) dopamine receptor = D(3) dopamine receptor (Homo sapiens, UniProt P35462); test: biochemical
Description: Binding affinity towards Dopamine receptor D3 using CHO cell line and [3H]-spiperone as radioligand

D(1A) dopamine receptor = D(1A) dopamine receptor (Sus scrofa, UniProt P50130); test: Binding affinity towards Dopamine receptor D1 using porcine striatal membrane and [3H]-SCH- 23390 as radioligand; set-up: species or system Striatum
Sequence of D(1A) dopamine receptor (P50130 whole entry): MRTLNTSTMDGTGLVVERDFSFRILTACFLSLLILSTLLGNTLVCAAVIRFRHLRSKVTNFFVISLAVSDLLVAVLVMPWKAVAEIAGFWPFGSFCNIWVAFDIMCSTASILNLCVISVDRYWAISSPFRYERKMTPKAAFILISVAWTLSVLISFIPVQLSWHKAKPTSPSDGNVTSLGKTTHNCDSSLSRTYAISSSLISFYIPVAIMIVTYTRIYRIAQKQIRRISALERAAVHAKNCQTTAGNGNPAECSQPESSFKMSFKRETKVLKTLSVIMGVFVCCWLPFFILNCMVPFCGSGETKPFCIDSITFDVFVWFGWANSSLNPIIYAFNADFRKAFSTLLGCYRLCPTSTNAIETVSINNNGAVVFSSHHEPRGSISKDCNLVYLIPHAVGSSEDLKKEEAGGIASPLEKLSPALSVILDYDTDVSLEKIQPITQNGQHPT

D(4) dopamine receptor = molecular target: T2, D(4) dopamine receptor (Homo sapiens, UniProt P21917); test: biochemical
T2 sequence (P21917 whole entry): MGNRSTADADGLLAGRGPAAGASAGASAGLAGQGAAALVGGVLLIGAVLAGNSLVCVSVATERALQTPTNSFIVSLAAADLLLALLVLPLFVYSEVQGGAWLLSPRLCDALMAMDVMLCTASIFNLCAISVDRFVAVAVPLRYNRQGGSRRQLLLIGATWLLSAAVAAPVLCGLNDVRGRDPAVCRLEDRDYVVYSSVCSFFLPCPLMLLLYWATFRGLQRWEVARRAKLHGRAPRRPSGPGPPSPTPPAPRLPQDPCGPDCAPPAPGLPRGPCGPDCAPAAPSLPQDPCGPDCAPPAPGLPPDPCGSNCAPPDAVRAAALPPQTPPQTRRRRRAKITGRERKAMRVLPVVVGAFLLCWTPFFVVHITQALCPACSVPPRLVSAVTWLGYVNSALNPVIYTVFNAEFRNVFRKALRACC
Description: Binding affinity towards Dopamine receptor D 4.4 using CHO cell line and [3H]spiperone as radioligand

D(2) dopamine receptor [3] = molecular target: T1, D(2) dopamine receptor; test: biochemical; remark: listed apart in the source
Description: Binding affinity towards Dopamine D2L receptor using CHO cell line and [3H]spiperone as radioligand

T1 sequence (P14416 whole entry): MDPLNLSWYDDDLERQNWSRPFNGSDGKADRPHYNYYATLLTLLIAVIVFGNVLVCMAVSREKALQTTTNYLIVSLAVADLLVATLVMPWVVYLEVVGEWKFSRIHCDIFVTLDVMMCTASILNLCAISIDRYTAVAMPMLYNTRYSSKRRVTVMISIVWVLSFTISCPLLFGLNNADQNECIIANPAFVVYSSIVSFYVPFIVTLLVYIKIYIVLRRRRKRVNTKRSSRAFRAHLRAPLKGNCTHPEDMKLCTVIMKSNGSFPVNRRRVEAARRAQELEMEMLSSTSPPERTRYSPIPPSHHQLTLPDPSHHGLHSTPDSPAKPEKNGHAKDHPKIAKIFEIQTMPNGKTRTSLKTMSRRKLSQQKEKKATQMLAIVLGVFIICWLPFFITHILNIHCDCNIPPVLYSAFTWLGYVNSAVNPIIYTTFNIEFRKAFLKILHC
Sequence of D(3) dopamine receptor (P35462 whole entry): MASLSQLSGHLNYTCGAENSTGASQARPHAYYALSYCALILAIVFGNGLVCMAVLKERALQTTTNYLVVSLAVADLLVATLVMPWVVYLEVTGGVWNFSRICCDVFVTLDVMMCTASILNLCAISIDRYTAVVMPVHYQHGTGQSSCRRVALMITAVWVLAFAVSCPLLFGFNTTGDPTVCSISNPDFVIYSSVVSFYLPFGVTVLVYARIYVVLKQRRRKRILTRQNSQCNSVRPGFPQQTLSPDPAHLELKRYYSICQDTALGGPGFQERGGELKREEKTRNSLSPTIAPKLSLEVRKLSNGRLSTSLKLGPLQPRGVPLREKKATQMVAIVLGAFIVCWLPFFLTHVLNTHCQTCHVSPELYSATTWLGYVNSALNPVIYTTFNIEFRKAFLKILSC

Row | Compound | Ki [1] | Ki (D(2) dopamine receptor [2]) | Ki (D(3) dopamine receptor) | Ki (D(1A) dopamine receptor) | Ki (D(4) dopamine receptor) | Ki (D(2) dopamine receptor [3])
1 | COc1ccccc1N1CCN(CCCCNC(=O)c2ccc(F)cc2)CC1 | 2300 nM | – | – | – | – | –
2 | COc1ccccc1N1CCN(CCCCNS(=O)(=O)c2ccc(F)cc2)CC1 | – | 120 nM | 210 nM | 3500 nM | 9.9 nM | 72 nM
3 | O=S(=O)(NCCCCN1CCN(c2cccc(Cl)c2Cl)CC1)c1ccc(F)cc1 | 830 nM | 49 nM | 16 nM | 1800 nM | 17 nM | 39 nM
4 | COc1ccccc1N1CCN(CCCCNC(=O)c2cccc(F)n2)CC1 | 3200 nM | 400 nM | 86 nM | 4100 nM | 76 nM | 260 nM
5 | O=C(NCCCCN1CCN(c2cccc(Cl)c2Cl)CC1)c1cc2ccccc2s1 | 3000 nM | – | – | – | – | –

Second part, the molecule after the results:

Row | Ki [1] | Ki (D(2) dopamine receptor [2]) | Ki (D(3) dopamine receptor) | Ki (D(1A) dopamine receptor) | Ki (D(4) dopamine receptor) | Ki (D(2) dopamine receptor [3]) | Compound
6 | 230 nM | 18 nM | 0.53 nM | 920 nM | 44 nM | – | O=C(NCCCCN1CCN(c2cccc(Cl)c2Cl)CC1)c1ccc(F)cc1
7 | 84 nM | 29 nM | 1.1 nM | 1300 nM | 100 nM | 21 nM | O=C(NCCCCN1CCN(c2cccc(Cl)c2Cl)CC1)c1ccc(F)nc1
8 | 240 nM | 57 nM | 9 nM | 910 nM | 97 nM | 44 nM | O=C(NCCCCN1CCN(c2cccc(Cl)c2Cl)CC1)c1cccc(F)n1
9 | 3700 nM | 240 nM | 14 nM | 6300 nM | 130 nM | 160 nM | COc1ccccc1N1CCN(CCCCNC(=O)c2ccc(F)nc2)CC1

Source: ChEMBL document CHEMBL1143473, “Synthesis and evaluation of 18F-labeled dopamine D3 receptor ligands as potential PET imaging agents” (Bioorg Med Chem Lett, 2005)
